Reference: US20090048269A1 (AstraZeneca AB, priority 2007, published 2009)

biological target: T1, human ALK5 (Homo sapiens, UniProt P36897); experiment: ALK5 Enzyme Assay 2 (fluorescence polarisation probe displacement); format: binding; design: 6His tagged human ALK5 (residues162-503) was grown and purified from insect cells; 6His; made in house; host or cells: insect cells; settings: read-out: EAA2: activity (μM) using Enzyme Assay 2
T1 sequence (P36897 162-503): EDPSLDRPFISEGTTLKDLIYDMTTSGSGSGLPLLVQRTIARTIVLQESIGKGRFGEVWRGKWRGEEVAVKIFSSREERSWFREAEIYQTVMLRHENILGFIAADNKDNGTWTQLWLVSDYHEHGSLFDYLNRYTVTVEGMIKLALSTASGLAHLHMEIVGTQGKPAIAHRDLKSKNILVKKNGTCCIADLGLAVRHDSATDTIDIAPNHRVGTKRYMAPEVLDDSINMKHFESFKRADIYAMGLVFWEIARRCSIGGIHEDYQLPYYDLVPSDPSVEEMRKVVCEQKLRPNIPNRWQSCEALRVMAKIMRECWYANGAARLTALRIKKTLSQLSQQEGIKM
Description: The ability of a compound to bind and inhibit ALK5 can be measured by its capacity to displace a probe molecule from recombinant ALK5 in an in vitro assay. Provided the probe molecule is derivatised with a fluorescent probe or is fluorescent itself, the binding affinity can be measured using Fluorescence Polarisation (FP). […] Assay measurements were performed in 50 mM HEPES pH7.4, 10 mM MgCl2, 1 mM DTT, 0.01% CHAPS in a final assay volume of 12 μl. Briefly 6 μl of ALK5 protein, final concentration of 3 μg/mL, was added to each well of a 384 well assay plate containing 12 nL of each concentration of test compound dissolved in DMSO. 6 μL of a solution containing an ALK5 FP probe ((2Z)-3-(6-{4-[2-({4-[(6-chloro[1,3]dioxolo[4,5-b]pyridin-7-yl)amino]-5-(1-methylethoxy)quinazolin-7-yl}oxy)ethyl]piperazin-1-yl}-6-oxohexyl)-2-[(2E,4E)-5-(3-ethyl-1,1-dimethyl-6,8-disulfo-1H-benzo[e]indolium-2-yl)penta-2,4-dien-1-ylidene]-1,1-dimethyl-6-sulfo-2,3-dihydro-1H-benzo[e]indole-8-sulfonate), final concentration 50 nM, and ATP, final concentration 1 μM.

| SMILES | IC50 |
| --- | --- |
| Cc1ccc(Oc2ccnc(Nc3ccc(S(=O)(=O)Nc4ccccn4)cc3)c2)c(C)n1 [Example 106, 4-[4-(2,6-Dimethylpyridin-3-yloxy)pyridin-2-ylamino]-N-(pyridin-2-yl)benzenesulfonamide] | 0.527 µM |
| Cc1cc(Oc2ccnc(Nc3cccc(C(=O)NCc4ccccn4)c3)c2)c(-c2ccccn2)nc1C [Example 99, 3-{[4-(5,6-Dimethyl-2-pyridin-2-ylpyridin-3-yl)oxypyridin-2-yl]-amino}-N-(pyridin-2-ylmethyl)benzamide] | 0.00734 µM |
| CCCCCNC(=O)N1CCN(Cc2cccc(Nc3cc(Oc4ccc(C)nc4C)ccn3)c2)CC1 [Example 181, 4-[(3-{[4-(2,6-Dimethylpyridin-3-yl)oxypyridin-2-yl]amino}-phenyl)methyl]-N-pentylpiperazine-1-carboxamide] | 0.0159 µM |
| Cc1ccc(Oc2ccnc(Nc3ccc(S(=O)(=O)N(C)C)cc3)c2)c(C)n1 [Example 117, 4-{[4-(2,6-Dimethylpyridin-3-yl)oxypyridin-2-yl]amino}-N,N-dimethylbenzenesulfonamide] | 0.37 µM |
| CCCc1nc(C)ccc1Oc1ccnc(Nc2cc(OC)c(OC)c(OC)c2)c1 [Example 166, 4-(6-Methyl-2-propylpyridin-3-yloxy)-N-(3,4,5-trimethoxy-phenyl)pyridin-2-amine] | 0.597 µM |
| COc1ccc(-c2nc(C)ccc2Oc2ccnc(Nc3cc(OC)c(OC)c(OC)c3)c2)cn1 [Example 169, 4-(6′-Methoxy-6-methyl-2,3′-bipyridin-3-yloxy)-N-(3,4,5-trimethoxyphenyl)pyridin-2-amine] | 0.0751 µM |
| Cc1ccc(Oc2ccnc(Nc3cccc(S(N)(=O)=O)c3)c2)c(C)n1 [Example 105, 3-{[4-(2,6-Dimethylpyridin-3-yl)oxypyridin-2-yl]amino}benzene-sulfonamide] | 0.00764 µM |
| Cc1ccc(Oc2ccnc(Nc3ccc(CC#N)cc3)c2)c(C)n1 [Example 91, 2-(4-{[4-(2,6-Dimethylpyridin-3-yl)oxypyridin-2-yl]amino}phenyl)-acetonitrile] | 0.0286 µM |
| Cc1ccc(Oc2ccnc(Nc3ccc(CO)cc3)c2)c(-c2ccco2)n1 [Example 163, [4-({4-[2-(Furan-2-yl)-6-methylpyridin-3-yl]oxypyridin-2-yl}-amino)phenyl]methanol] | 0.00528 µM |
| Cc1cc(Oc2ccnc(Nc3cccc(-c4cnco4)c3)c2)c(-c2ccccn2)nc1C [Example 77, 4-(5,6-Dimethyl-2-pyridin-2-ylpyridin-3-yl)oxy-N-[3-(1.3-oxazol-5-yl)phenyl]pyridin-2-amine] | 0.00862 µM |
| CC(=O)NS(=O)(=O)c1ccc(Nc2cc(Oc3ccc(C)nc3C)ccn2)cc1 [Example 107, N-{4-[4-(2,6-Dimethylpyridin-3-yloxy)pyridin-2-ylamino]phenyl-sulfonyl}acetamide] | 0.592 µM |
| CC(=O)Nc1ccc(Nc2cc(Oc3ccc(C)nc3C)ccn2)cc1 [Example 123, N-(4-{[4-(2,6-Dimethylpyridin-3-yl)oxypyridin-2-yl]amino}-phenyl)acetamide] | 0.0324 µM |
| COc1ccc(Nc2cc(Oc3ccc(C)nc3C)ccn2)cc1 [Example 90, 4-(2,6-Dimethylpyridin-3-yl)oxy-N-(4-methoxyphenyl)pyridin-2-amine] | 0.135 µM |
| Cc1ccc(Oc2ccnc(Nc3cccc(S(=O)(=O)N4CCOCC4)c3)c2)c(C)n1 [Example 119, 4-(2,6-Dimethylpyridin-3-yl)oxy-N-(3-morpholin-4-ylsulfonyl-phenyl)pyridin-2-amine] | 0.0319 µM |
| Cc1ccc(Oc2ccnc(Nc3ccc(S(=O)(=O)NCCn4cccn4)cc3)c2)c(C)n1 [Example 136, 4-{[4-(2,6-Dimethylpyridin-3-yl)oxypyridin-2-yl]amino}-N-(2-pyrazol-1-ylethyl)benzenesulfonamide] | 0.101 µM |
| Cc1ccc(Oc2ccnc(Nc3ccc(C(=O)NCCn4cccc4)cc3)c2)c(C)n1 [Example 216, 4-{[4-(2,6-Dimethylpyridin-3-yl)oxypyridin-2-yl]amino}-N-(2-pyrrol-1-ylethyl)benzamide] | 0.108 µM |
| Cc1ccc(Oc2ccnc(Nc3ccc(S(N)(=O)=O)cc3)c2)c(-c2ccccc2)n1 [Example 149, 4-{[4-(6-Methyl-2-phenylpyridin-3-yl)oxypyridin-2-yl]amino}-benzenesulfonamide] | 0.014 µM |

| SMILES | IC50 |
| --- | --- |
| Cc1cc(Oc2ccnc(Nc3cc(NS(C)(=O)=O)cc(C(N)=O)c3)c2)c(-c2ccccn2)nc1C [Example 84, 3-{[4-(5,6-Dimethyl-2-pyridin-2-ylpyridin-3-yl)oxypyridin-2-yl]-amino}-5-methanesulfonamidobenzamide] | 0.016 µM |
| CCn1nccc1Nc1cc(Oc2ccc(C)nc2C)ccn1 [Example 88, 4-[(2,6-Dimethylpyridin-3-yl)oxy]-N-(1-ethyl-1H-pyrazol-5-yl)-pyridin-2-amine] | 0.205 µM |
| COCCNS(=O)(=O)c1ccc(Nc2cc(Oc3ccc(C)nc3C)ccn2)cc1 [Example 110, 4-{[4-(2,6-Dimethylpyridin-3-yl)oxypyridin-2-yl]amino}-N-(2-methoxyethyl)benzenesulfonamide] | 0.203 µM |
| Cc1cc(Oc2ccnc(Nc3ccc(C(N)=O)cc3)c2)c(-c2ccccn2)nc1C [Example 81, 4-{[4-(5,6-Dimethyl-2-pyridin-2-ylpyridin-3-yl)oxypyridin-2-yl]-amino}benzamide] | 0.0111 µM |
| Cc1ccc(Oc2ccnc(Nc3ccc(CO)cc3)c2)c(-c2ccc(F)cc2)n1 [Example 158, [4-({4-[2-(4-Fluorophenyl)-6-methylpyridin-3-yl]oxypyridin-2-yl}-amino)phenyl]methanol] | 0.0315 µM |
| Cc1ccc(Oc2ccnc(Nc3ccc(CC#N)cc3)c2)c(-c2ccco2)n1 [Example 159, 2-[4-({4-[2-(Furan-2-yl)-6-methylpyridin-3-yl]oxypyridin-2-yl}-amino)phenyl]acetonitrile] | 0.00299 µM |
| Cc1ccc(Oc2ccnc(Nc3ccc(C#N)cc3)c2)c(C)n1 [Example 89, 4-{[4-(2,6-Dimethylpyridin-3-yl)oxypyridin-2-yl]amino}-benzonitrile] | 0.346 µM |
| Cc1ccc(Oc2ccnc(Nc3cccc(CN4CCN(C(=O)NC5CCCCC5)CC4)c3)c2)c(C)n1 [Example 178, N-Cyclohexyl-4-{3-[4-(2,6-dimethylpyridin-3-yloxy)pyridin-2-ylamino]benzyl}piperazine-1-carboxamide] | 0.0237 µM |
| Cc1ccc(Oc2ccnc(Nc3cccc(CN4CCN(C(=O)NC56CC7CC(CC(C7)C5)C6)CC4)c3)c2)c(C)n1 [Example 177] | 0.0469 µM |
| Cc1ccc(Oc2ccnc(Nc3ccc(C(N)=O)cc3)c2)c(-c2ccccc2)n1 [Example 151, 4-{[4-(6-Methyl-2-phenylpyridin-3-yl)oxypyridin-2-yl]amino}-benzamide] | 0.0137 µM |
| Cc1ccc(Oc2ccnc(Nc3cccc(C(=O)N4CCC(S(C)(=O)=O)C4)c3)c2)c(C)n1 (stereo not shown) [Example 66, (3-{[4-(2,6-Dimethylpyridin-3-yl)oxypyridin-2-yl]amino}phenyl)-(3-methylsulfonylpyrrolidin-1-yl)methanone] | 0.0185 µM |
| Cc1cc(Oc2ccnc(Nc3ccc(C(=O)NCCCN)cc3)c2)c(-c2ccccn2)nc1C [Example 199, N-(3-Aminopropyl)-4-{[4-(5,6-dimethyl-2-pyridin-2-ylpyridin-3-yl)oxypyridin-2-yl]amino}benzamide] | 0.00145 µM |
| Cc1ccc(Oc2ccnc(Nc3cccc(C(=O)N(C)C)c3)c2)c(C)n1 [Example 62, 3-{[4-(2,6-Dimethylpyridin-3-yl)oxypyridin-2-yl]amino}-N,N-dimethylbenzamide] | 0.0535 µM |
| COc1cc(Nc2cc(Oc3ccc(C)nc3-c3cccnc3)ccn2)cc(OC)c1OC [Example 172, 4-(6-Methyl-2,3′-bipyridin-3-yloxy)-N-(3,4,5-trimethoxyphenyl)-pyridin-2-amine] | 0.061 µM |
| Cc1ccc(Oc2ccnc(Nc3ccc(S(=O)(=O)NCCN4CCS(=O)(=O)CC4)cc3)c2)c(C)n1 [Example 132, 4-{[4-(2,6-Dimethylpyridin-3-yl)oxypyridin-2-yl]amino}-N-[2-(1,1-dioxo-1,4-thiazinan-4-yl)ethyl]benzenesulfonamide] | 0.142 µM |
| Cc1ccc(Oc2ccnc(Nc3cccc(C(=O)NCc4cnccn4)c3)c2)c(C)n1 [Example 64, 3-{[4-(2,6-Dimethylpyridin-3-yl)oxypyridin-2-yl]amino}-N-(pyrazin-2-ylmethyl)benzamide] | 0.0415 µM |
| Cc1ccc(Oc2ccnc(Nc3cccc(CN4CCN(S(C)(=O)=O)CC4)c3)c2)c(C)n1 [Example 175, 4-(2,6-Dimethylpyridin-3-yl)oxy-N-{3-[(4-methylsulfonyl-piperazin-1-yl)methyl]phenyl}pyridin-2-amine] | 0.00611 µM |
